Results: article PMC10495264 (Nature Cell Biology, 2023)
Several values for one entry are separate records, joined by “and”; a condition that tells them apart may be missing. Identical values can stand only once.

Columns and labels:
[1] = system: FASN, ACC1 and mTOR total protein levels; assay: FASN, ACC1 and mTOR total protein levels, immunoblot; type: cell-based, human
Procedure: For standard SDS–PAGE and immunoblotting experiments, cells from a well of a 12-well plate were lysed in 250 μl of ice-cold Triton lysis buffer (50 mM Tris pH 7.5, 1% Triton X-100, 150 mM NaCl, 50 mM NaF, 2 mM Na-vanadate and 0.011 g ml^−1 β-glycerophosphate) supplemented with 1×PhosSTOP phosphatase inhibitors (cat. no. 4906837001, Roche) and 1×cOmplete protease inhibitors (cat. no. 11836153001, Roche) for 10 min on ice. The samples were clarified by centrifugation (20,000g, 15 min, 4 °C) and the supernatants were boiled in 1×SDS sample buffer (5×SDS sample buffer: 350 mM Tris–HCl pH 6.8, 30% glycerol, 600 mM DTT, 12.8% SDS and 0.12% bromophenol blue). The band intensities were quantified using the ImageJ software.
Data in graphs are shown as the mean ± s.e.m. *P < 0.05, **P < 0.005, ***P < 0.0005. Source numerical data and unprocessed blots are provided. Source data

[2] = system: RagC lysosomal localization; assay: Co-localization of RagC with LAMP2, confocal microscopy; type: cell-based, human; conditions: Ceru 4h, mean of individual cells (ED Fig. 8f); DMSO mean 0.563571
TORC1 = target: T1, TORC1 (Saccharomyces cerevisiae, UniProt P35169); assay: MST binding affinity assays with fluorescent TORC1 (GFP–Tor1)
T1 construct: made in house; host or cells: S. cerevisiae strain NIC005 ([RL170-2c] LEU2:GFP-TOR1)
T1 sequence (P35169 whole entry): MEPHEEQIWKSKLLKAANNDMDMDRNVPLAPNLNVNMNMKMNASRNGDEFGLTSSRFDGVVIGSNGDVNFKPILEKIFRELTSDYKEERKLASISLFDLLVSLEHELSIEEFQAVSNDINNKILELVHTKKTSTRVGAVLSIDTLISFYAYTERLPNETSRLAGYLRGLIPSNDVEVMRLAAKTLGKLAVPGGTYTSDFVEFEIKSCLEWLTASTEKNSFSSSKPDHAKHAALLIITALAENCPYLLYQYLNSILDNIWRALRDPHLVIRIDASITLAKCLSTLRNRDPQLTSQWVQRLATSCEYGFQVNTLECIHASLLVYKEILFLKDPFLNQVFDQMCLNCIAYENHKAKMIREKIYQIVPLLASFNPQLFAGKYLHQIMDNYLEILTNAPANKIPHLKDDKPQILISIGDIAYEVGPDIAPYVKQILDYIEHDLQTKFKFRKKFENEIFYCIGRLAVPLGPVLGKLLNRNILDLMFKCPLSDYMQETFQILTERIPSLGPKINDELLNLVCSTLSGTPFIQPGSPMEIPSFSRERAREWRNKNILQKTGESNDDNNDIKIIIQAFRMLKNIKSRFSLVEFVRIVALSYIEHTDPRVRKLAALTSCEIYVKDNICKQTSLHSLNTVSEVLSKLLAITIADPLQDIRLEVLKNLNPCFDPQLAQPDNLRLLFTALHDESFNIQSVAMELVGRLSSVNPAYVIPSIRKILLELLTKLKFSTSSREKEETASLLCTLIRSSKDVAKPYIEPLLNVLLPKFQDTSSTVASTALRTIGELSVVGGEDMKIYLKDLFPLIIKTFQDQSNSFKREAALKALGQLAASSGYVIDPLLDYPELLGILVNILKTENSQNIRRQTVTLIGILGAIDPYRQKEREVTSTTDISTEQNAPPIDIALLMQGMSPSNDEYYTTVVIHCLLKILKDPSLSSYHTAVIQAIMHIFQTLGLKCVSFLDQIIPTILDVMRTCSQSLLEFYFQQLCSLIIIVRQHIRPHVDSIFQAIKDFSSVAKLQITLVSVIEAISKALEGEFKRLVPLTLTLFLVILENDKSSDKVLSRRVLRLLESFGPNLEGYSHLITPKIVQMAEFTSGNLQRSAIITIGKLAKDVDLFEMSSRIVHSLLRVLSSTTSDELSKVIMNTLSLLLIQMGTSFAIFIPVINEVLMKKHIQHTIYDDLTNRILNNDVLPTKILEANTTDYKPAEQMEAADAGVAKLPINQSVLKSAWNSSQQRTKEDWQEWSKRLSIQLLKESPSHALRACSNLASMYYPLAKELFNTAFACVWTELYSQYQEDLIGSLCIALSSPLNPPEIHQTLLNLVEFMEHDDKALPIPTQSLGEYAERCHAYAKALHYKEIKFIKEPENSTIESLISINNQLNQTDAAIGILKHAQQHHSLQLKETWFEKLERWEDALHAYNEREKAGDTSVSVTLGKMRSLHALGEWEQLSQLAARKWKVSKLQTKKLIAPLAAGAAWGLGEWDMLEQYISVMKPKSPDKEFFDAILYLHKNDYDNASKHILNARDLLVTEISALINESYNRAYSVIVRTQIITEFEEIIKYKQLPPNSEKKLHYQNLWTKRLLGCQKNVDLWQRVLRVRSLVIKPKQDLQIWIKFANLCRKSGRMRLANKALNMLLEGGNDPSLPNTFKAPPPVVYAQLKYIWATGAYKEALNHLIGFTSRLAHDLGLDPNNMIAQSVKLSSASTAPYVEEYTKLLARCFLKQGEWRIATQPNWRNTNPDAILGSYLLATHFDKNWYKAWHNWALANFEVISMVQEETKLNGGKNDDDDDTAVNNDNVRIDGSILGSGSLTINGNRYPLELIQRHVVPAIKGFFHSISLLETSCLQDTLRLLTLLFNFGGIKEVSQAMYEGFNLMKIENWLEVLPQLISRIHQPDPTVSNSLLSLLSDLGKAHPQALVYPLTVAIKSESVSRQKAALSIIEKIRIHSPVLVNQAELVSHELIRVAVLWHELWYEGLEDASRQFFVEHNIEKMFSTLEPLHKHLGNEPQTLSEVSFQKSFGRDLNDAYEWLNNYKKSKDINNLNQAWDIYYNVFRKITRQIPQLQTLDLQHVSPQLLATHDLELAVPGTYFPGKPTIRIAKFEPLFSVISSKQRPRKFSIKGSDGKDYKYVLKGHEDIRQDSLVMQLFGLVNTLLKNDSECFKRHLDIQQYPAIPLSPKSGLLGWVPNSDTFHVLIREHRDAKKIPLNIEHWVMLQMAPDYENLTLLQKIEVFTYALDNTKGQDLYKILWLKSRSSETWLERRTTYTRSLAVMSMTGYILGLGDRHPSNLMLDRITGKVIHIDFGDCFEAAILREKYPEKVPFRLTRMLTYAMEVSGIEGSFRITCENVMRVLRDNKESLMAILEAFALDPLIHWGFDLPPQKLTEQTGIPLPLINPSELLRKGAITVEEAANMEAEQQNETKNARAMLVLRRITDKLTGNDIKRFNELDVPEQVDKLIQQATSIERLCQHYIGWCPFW
T1 sequence (Q08921 whole entry partner): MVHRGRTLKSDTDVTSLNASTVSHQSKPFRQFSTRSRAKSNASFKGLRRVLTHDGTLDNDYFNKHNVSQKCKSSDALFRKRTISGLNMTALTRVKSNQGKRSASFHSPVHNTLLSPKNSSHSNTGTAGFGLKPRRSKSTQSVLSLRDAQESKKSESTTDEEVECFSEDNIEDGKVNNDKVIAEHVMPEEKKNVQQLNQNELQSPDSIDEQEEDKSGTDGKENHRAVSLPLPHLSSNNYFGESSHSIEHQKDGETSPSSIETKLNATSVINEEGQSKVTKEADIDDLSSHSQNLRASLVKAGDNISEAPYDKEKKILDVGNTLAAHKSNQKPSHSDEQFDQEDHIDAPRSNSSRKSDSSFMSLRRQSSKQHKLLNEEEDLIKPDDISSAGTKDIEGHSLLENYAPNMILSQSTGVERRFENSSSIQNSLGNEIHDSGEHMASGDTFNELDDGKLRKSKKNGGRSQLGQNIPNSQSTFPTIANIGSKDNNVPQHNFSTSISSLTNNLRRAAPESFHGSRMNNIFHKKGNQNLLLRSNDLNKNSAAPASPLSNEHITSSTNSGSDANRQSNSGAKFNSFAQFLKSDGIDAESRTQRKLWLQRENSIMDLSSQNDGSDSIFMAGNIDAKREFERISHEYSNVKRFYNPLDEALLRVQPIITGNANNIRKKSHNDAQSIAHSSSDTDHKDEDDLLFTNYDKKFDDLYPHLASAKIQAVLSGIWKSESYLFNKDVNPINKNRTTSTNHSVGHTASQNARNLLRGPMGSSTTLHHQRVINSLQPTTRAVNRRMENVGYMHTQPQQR
T1 sequence (P38873 whole entry partner): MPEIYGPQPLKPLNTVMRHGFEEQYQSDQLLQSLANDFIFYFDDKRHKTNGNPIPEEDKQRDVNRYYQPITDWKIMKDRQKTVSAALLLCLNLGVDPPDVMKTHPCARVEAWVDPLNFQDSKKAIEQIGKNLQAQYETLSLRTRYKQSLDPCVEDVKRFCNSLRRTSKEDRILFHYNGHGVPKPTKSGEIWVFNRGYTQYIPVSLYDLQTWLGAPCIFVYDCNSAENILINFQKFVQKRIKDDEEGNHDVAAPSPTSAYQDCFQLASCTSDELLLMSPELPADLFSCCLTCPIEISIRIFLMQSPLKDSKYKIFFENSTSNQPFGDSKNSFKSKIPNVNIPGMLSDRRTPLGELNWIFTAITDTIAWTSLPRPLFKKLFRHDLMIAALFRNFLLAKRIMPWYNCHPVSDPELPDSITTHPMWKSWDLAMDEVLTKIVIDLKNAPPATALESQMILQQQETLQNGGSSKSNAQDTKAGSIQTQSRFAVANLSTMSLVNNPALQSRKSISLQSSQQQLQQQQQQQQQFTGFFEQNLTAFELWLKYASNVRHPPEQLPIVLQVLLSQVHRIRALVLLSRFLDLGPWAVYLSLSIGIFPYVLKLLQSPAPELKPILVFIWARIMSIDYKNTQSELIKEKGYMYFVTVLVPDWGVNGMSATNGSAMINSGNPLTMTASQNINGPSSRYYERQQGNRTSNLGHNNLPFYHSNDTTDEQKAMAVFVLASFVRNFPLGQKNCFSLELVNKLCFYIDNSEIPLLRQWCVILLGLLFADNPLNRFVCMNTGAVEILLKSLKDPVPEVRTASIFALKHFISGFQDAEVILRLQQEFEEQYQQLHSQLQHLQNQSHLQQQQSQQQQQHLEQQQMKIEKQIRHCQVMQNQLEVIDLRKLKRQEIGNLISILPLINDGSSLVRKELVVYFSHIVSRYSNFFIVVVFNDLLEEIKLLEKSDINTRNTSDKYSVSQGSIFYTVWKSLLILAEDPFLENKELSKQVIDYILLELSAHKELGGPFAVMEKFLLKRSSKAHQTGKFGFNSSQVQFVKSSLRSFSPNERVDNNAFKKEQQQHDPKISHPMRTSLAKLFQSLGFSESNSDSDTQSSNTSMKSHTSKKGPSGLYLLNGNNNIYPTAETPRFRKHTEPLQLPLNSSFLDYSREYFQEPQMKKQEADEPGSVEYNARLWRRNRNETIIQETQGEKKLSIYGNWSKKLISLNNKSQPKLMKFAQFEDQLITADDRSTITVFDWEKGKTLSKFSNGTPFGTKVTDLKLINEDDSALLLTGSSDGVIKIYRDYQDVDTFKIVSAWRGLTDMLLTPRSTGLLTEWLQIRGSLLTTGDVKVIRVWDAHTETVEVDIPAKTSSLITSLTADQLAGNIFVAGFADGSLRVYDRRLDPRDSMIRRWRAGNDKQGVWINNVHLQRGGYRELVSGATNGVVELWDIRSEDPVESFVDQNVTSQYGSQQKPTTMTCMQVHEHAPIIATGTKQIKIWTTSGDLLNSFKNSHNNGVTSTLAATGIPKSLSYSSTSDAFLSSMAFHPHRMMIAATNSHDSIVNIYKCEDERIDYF
T1 sequence (P41318 whole entry partner): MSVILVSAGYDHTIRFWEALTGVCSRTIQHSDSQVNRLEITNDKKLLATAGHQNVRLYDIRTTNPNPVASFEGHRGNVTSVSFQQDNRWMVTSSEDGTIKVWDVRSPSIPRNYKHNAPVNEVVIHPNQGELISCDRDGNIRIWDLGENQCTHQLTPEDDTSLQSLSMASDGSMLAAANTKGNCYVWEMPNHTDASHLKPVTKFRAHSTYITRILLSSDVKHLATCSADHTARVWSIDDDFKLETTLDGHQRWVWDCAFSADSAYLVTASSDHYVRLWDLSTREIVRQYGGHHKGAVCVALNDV
Procedure: The MST experiments were performed using a Monolith NT.115 (Nanotemper Technologies). Purification of TORC1 containing the N-terminally GFP-tagged Tor1 subunit was carried out as described previously. For the protein–protein interaction experiments, GFP–Tor1-containing TORC1 (7.5 nM) was mixed with a series of twofold dilutions (a total of 16 samples) of Acc1 (highest concentration, 80 nM) or Fas1 (highest concentration, 20 nM) purified from yeast through TAP-tag immuno-enrichment with rabbit IgG-coated magnetic beads and subsequent TEV cleavage in elution buffer (50 mM HEPES NaOH pH 7.5 and 150 mM NaCl) for 1 h at 18 °C. The samples were loaded into Monolith NT.115 capillaries and MST measurements were performed using 80% laser power and medium MST power setting at 30 °C. For the small molecule–protein interaction experiments, GFP–Tor1-containing TORC1 (7.5 nM) was mixed with a series of twofold dilutions (a total of 16 samples) of Mal-CoA (M4263, Sigma-Aldrich; highest concentration, 5 mM) dissolved in 50 mM HEPES pH 7.5. The samples were loaded into Monolith NT.115 capillaries and MST measurements were performed using 80% laser power and medium MST power setting at 30 °C. The experiments were performed in triplicate and data were fitted using the Kd model of the MO.Affinity Analysis software (Nanotemper Technologies). The signal-to-noise ratio represents the response amplitude divided by the noise of the measurement. The Kd value was obtained by plotting the bound fraction against the log-transformed ligand concentration.

mTORC1 = target: T2, mTORC1 (Homo sapiens, UniProt P42345); assay: Mammalian mTORC1 kinase activity assays (IVK, 4E-BP1 substrate); type: biochemical
T2 construct: endogenous mTORC1 complexes were purified from HEK293FT cells; endogenous in cells; host or cells: HEK293FT (immunoprecipitation of endogenous mTOR); the 4E-BP1 substrate was made in E. coli BL21 RP
Procedure: Following the last wash step with CHAPS IP wash buffer, the beads were washed once with kinase wash buffer (25 mM HEPES pH 7.4 and 20 mM KCl) and excess liquid was removed using a Hamilton syringe—the final bead volume was approximately 10 μl. Kinase reactions were prepared by adding 10 μl of 3×kinase assay buffer (75 mM HEPES KOH pH 7.4, 60 mM KCl and 30 mM MgCl2) to the beads. […] The reactions were incubated at 30 °C for 30 min, and stopped by the addition of one volume of 2×SDS loading buffer and boiling (5 min, 95 °C). […] Signals were quantified using the gel analysis tool of ImageJ and are shown as the phospho-4E-BP1^T37/46/4E-BP1 ratio.

## C/C=C/C/C=C/CCC(=O)[C@H]1O[C@H]1C(N)=O [cerulenin]
[1]; 4 h cerulenin
  FASN, ACC1 and mTOR total protein levels: not affected
[1]; ED Fig. 3l, relative to DMSO
  FASN/Tubulin, Mean: 1.005
[1]; ED Fig. 3m, relative to DMSO
  ACC1/Tubulin, Mean: 1.011
[1]; ED Fig. 3n, relative to DMSO
  mTOR/Tubulin, Mean: 1.067
[2]
  RagC/LAMP2 colocalization (Manders' coefficient), Mean: 0.5276

## CC(C)(COP(=O)(O)OP(=O)(O)OCC1OC(n2cnc3c(N)ncnc32)C(O)C1OP(=O)(O)O)C(O)C(=O)NCCC(=O)NCCSC(=O)CC(=O)O (centres unmarked) [Mal-CoA, malonyl-CoA]
TORC1; Mal-CoA 1.52588e-7 M
  Fraction bound transformed: -0.1669
  Mean Fnorm: 842.758 ‰
TORC1; Mal-CoA 1.52588e-7 M, Replicates 1-3 (ED Fig. 10a)
  Fnorm: 842.278 ‰ and 840.902 ‰ and 845.093 ‰
TORC1; Mal-CoA 3.05176e-7 M
  Fraction bound transformed: 0.1808
  Mean Fnorm: 838.674 ‰
TORC1; Mal-CoA 3.05176e-7 M, Replicates 1-2 (ED Fig. 10a)
  Fnorm: 836.322 ‰ and 841.026 ‰
TORC1; Mal-CoA 6.10352e-7 M
  Fraction bound transformed: -0.2372
  Mean Fnorm: 843.583 ‰
TORC1; Mal-CoA 6.10352e-7 M, Replicates 1-3 (ED Fig. 10a)
  Fnorm: 840.469 ‰ and 846.42 ‰ and 843.86 ‰
TORC1; Mal-CoA 1.2207e-6 M
  Fraction bound transformed: 0.2149
  Mean Fnorm: 838.273 ‰
TORC1; Mal-CoA 1.2207e-6 M, Replicates 1-3 (ED Fig. 10a)
  Fnorm: 837.823 ‰ and 838.78 ‰ and 838.217 ‰
TORC1; Mal-CoA 2.44141e-6 M
  Fraction bound transformed: 0.1801
  Mean Fnorm: 838.682 ‰
TORC1; Mal-CoA 2.44141e-6 M, Replicates 1-3 (ED Fig. 10a)
  Fnorm: 839.959 ‰ and 836.5 ‰ and 839.586 ‰
TORC1; Mal-CoA 4.88281e-6 M
  Fraction bound transformed: 0.2862
  Mean Fnorm: 837.436 ‰
TORC1; Mal-CoA 4.88281e-6 M, Replicates 1-3 (ED Fig. 10a)
  Fnorm: 839.798 ‰ and 836.387 ‰ and 836.122 ‰
TORC1; Mal-CoA 9.76563e-6 M
  Fraction bound transformed: 0.3923
  Mean Fnorm: 836.19 ‰
TORC1; Mal-CoA 9.76563e-6 M, Replicates 1-3 (ED Fig. 10a)
  Fnorm: 834.741 ‰ and 836.18 ‰ and 837.648 ‰
TORC1; Mal-CoA 1.95313e-5 M
  Fraction bound transformed: 0.495
  Mean Fnorm: 834.984 ‰
TORC1; Mal-CoA 1.95313e-5 M, Replicates 1-3 (ED Fig. 10a)
  Fnorm: 835.416 ‰ and 833.302 ‰ and 836.235 ‰
TORC1; Mal-CoA 3.90625e-5 M
  Fraction bound transformed: 0.697
  Mean Fnorm: 832.611 ‰
TORC1; Mal-CoA 3.90625e-5 M, Replicates 1-3 (ED Fig. 10a)
  Fnorm: 833.941 ‰ and 832.342 ‰ and 831.55 ‰
TORC1; Mal-CoA 7.8125e-5 M
  Fraction bound transformed: 0.721
  Mean Fnorm: 832.33 ‰
TORC1; Mal-CoA 7.8125e-5 M, Replicates 2-3 (ED Fig. 10a)
  Fnorm: 830.576 ‰ and 834.083 ‰
TORC1; Mal-CoA 0.00015625 M
  Fraction bound transformed: 0.6458
  Mean Fnorm: 833.212 ‰
TORC1; Mal-CoA 0.00015625 M, Replicates 1-3 (ED Fig. 10a)
  Fnorm: 833.177 ‰ and 832.509 ‰ and 833.951 ‰
TORC1; Mal-CoA 0.0003125 M
  Fraction bound transformed: 0.8154
  Mean Fnorm: 831.221 ‰
TORC1; Mal-CoA 0.0003125 M, Replicates 1-3 (ED Fig. 10a)
  Fnorm: 828.879 ‰ and 833.898 ‰ and 830.884 ‰
TORC1; Mal-CoA 0.00125 M
  Fraction bound transformed: 0.8761
  Mean Fnorm: 830.508 ‰
TORC1; Mal-CoA 0.00125 M, Replicates 1-3 (ED Fig. 10a)
  Fnorm: 830.373 ‰ and 829.245 ‰ and 831.906 ‰
TORC1; Mal-CoA 0.0025 M
  Fraction bound transformed: 1.1671
  Mean Fnorm: 827.09 ‰
TORC1; Mal-CoA 0.0025 M, Replicates 1-3 (ED Fig. 10a)
  Fnorm: 828.614 ‰ and 826.728 ‰ and 825.93 ‰
TORC1; Mal-CoA 0.005 M
  Fraction bound transformed: 1.112
  Mean Fnorm: 827.742 ‰
TORC1; Mal-CoA 0.005 M, Replicates 1-3 (ED Fig. 10a)
  Fnorm: 831.215 ‰ and 831.366 ‰ and 820.645 ‰
TORC1; Mal-CoA […]
  Fraction bound transformed: 1.135
  Mean Fnorm: 827.462 ‰
TORC1; purified yeast TORC1 (GFP–Tor1) 7.5 nM, 30 °C, mean ± s.d., n = 3, read-out: Kd (binding of Mal-CoA to TORC1, MST)
  Kd: 19.3 µM
mTORC1
  IC50: 230 µM
mTORC1; Fig. 8f, compound 0.01 mM, relative to 0 mM
  In vitro mTORC1 assay, p-4E-BP1(T37/46)/4E-BP1, Mean: 0.741
mTORC1; Fig. 8f, compound 0.05 mM, relative to 0 mM
  In vitro mTORC1 assay, p-4E-BP1(T37/46)/4E-BP1, Mean: 0.7667
mTORC1; Fig. 8f, compound 0.1 mM, relative to 0 mM
  In vitro mTORC1 assay, p-4E-BP1(T37/46)/4E-BP1, Mean: 0.821
mTORC1; Fig. 8f, compound 0.5 mM, relative to 0 mM
  In vitro mTORC1 assay, p-4E-BP1(T37/46)/4E-BP1, Mean: 0.5457
mTORC1; Fig. 8f, compound 1 mM, relative to 0 mM
  In vitro mTORC1 assay, p-4E-BP1(T37/46)/4E-BP1, Mean: 0.5376
mTORC1; Fig. 8f, compound 2.5 mM, relative to 0 mM
  In vitro mTORC1 assay, p-4E-BP1(T37/46)/4E-BP1, Mean: 0.4196
mTORC1; Fig. 8f, compound 5 mM, relative to 0 mM
  In vitro mTORC1 assay, p-4E-BP1(T37/46)/4E-BP1, Mean: 0.4175
mTORC1; Fig. 8j, Mal-CoA 2 mM, ATP 0 uM, relative to control at 500 uM ATP
  In vitro mTORC1 assay, p-4E-BP1(T37/46)/4E-BP1, Mean: 0.1107
mTORC1; Fig. 8j, Mal-CoA 2 mM, ATP 25 uM, relative to control at 500 uM ATP
  In vitro mTORC1 assay, p-4E-BP1(T37/46)/4E-BP1, Mean: 0.133
mTORC1; Fig. 8j, Mal-CoA 2 mM, ATP 100 uM, relative to control at 500 uM ATP
  In vitro mTORC1 assay, p-4E-BP1(T37/46)/4E-BP1, Mean: 0.267
mTORC1; Fig. 8j, Mal-CoA 2 mM, ATP 500 uM, relative to control at 500 uM ATP
  In vitro mTORC1 assay, p-4E-BP1(T37/46)/4E-BP1, Mean: 0.681
mTORC1; Fig. 8j, Mal-CoA 2 mM, ATP 2000 uM, relative to control at 500 uM ATP
  In vitro mTORC1 assay, p-4E-BP1(T37/46)/4E-BP1, Mean: 1.021
mTORC1; Fig. 8j, Mal-CoA 2 mM, ATP 5000 uM, relative to control at 500 uM ATP
  In vitro mTORC1 assay, p-4E-BP1(T37/46)/4E-BP1, Mean: 1.149
mTORC1; read-out: Ki (ATP-competitive, human mTORC1)
  Ki: 770 µM
